US10189854B2, “Substituted pyrimidine compounds” (Grünenthal GmbH, priority 2014, dated 2019)
Blank lines part the entries; values can stand above or below the compound they belong to.

Biological target: human PDE4B1 (Homo sapiens (Human), UniProt Q07343)
Test: cAMP HTRF assay to determine the activity of hPDE4B1
Assay type: biochemical
Conditions: IC50 inhibition of PDE4B; human recombinant PDE4B1, cAMP HTRF assay
Outline: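 Recombinant human PDE4B1 expressed in Sf9 cells (4.8 U) was incubated with 40 nM cAMP for 30 min at room temperature in Tris buffer, pH 7.8, with MgCl2, DTT and Tween 20. HTRF detection of remaining cAMP followed, with 1 mM IBMX stop, read 60 min later as the 665/620 nm ratio. Results are % inhibition versus control.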

Chain of human PDE4B1 (Q07343 whole entry): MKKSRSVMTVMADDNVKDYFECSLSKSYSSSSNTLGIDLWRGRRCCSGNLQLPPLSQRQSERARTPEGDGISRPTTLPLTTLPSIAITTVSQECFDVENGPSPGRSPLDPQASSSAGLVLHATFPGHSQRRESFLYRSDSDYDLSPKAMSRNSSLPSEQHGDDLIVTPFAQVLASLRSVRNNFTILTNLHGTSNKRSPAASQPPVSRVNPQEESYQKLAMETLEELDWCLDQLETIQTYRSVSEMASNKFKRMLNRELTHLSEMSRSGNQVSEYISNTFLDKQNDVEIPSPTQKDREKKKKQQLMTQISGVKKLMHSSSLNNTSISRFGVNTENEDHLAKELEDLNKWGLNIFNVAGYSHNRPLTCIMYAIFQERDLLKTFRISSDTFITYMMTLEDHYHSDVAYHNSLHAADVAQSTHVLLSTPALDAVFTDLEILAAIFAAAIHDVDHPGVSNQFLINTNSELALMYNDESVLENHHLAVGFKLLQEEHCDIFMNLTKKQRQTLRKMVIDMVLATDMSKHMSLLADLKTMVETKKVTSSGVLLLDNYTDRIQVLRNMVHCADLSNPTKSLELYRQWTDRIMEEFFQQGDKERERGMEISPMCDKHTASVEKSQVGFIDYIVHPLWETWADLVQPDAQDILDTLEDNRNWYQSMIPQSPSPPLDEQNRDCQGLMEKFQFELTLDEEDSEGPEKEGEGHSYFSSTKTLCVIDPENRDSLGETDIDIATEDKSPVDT

Compound: O=C(c1ccc2c(c1)N(c1ncc(-c3ccc(F)c(F)c3)cn1)CC21CC1)N1CCOCC1 [Compound 53, [1-[5-(3,4-Difluoro-phenyl)-pyrimidin-2-yl]-spiro[1,2-dihydro-indole-3,1′-cyclopropane]-6-yl]-morpholin-4-yl-methanone]
IC50: 0.1 to 1 µM

Compound: N-[(3R)-1-[1-(5-Phenyl-pyrimidin-2-yl)-spiro[1,2-di-hydro-indole-3,1′-cyclopropane]-6-carbonyl]-pyrrolidin-3-yl]-acetamide [Compound 203]
IC50: 1 to 10 µM

Compound: C[C@@H]1CN(C(=O)c2ccc3c(c2)N(c2ncc(-c4ccccc4F)cn2)CC32CC2)C[C@H](C)O1 [Compound 104, [(2R,6S)-2,6-dimethyl-morpholin-4-yl]-[1-[5-(2-fluorophenyl)-pyrimidin-2-yl]-spiro[1,2-dihydro-indole-3,1′-cyclopropane]-6-yl]-methanone]
IC50: < 0.1 µM

Compound: Cn1cc(-c2cnc(N3CC4(CC4)c4ccc(C(=O)N5CC[C@@H](N)C5)cc43)nc2)cn1 [Compound 173, [(3R)-3-Amino-pyrrolidin-1-yl]-[1-[5-(1-methyl-1H-pyrazol-4-yl)-pyrimidin-2-yl]-spiro[1,2-dihydro-indole-3,1′-cyclopropane]-6-yl]-methanone]
IC50: < 0.1 µM

Compound: O=C(c1ccc2c(c1)N(c1ncc(-c3ccc(F)cc3F)cn1)CC21CC1)N1CCOCC1 [Compound 8, [1-[5-(2,4-Difluoro-phenyl)-pyrimidin-2-yl]-spiro[1,2-dihydro-indole-3,1′-cyclopropane]-6-yl]-morpholin-4-yl-methanone]
IC50: < 0.1 µM

Compound: O=C1CN(C(=O)c2ccc3c(c2)N(c2ncc(-c4ccccn4)cn2)CC32CC2)CCN1 [Compound 180, 4-[1-(5-Pyridin-2-yl-pyrimidin-2-yl)-spiro[1,2-dihydro-indole-3,1′-cyclopropane]-6-carobnyl]-piperazin-2-one]
IC50: < 0.1 µM

Compound: CN(C(=O)c1ccc2c(c1)N(c1ncc(-c3ccccc3F)cn1)CC21CC1)C1CC1 [Compound 46, N-Cyclopropyl-1-[5-(2-fluorophenyl)-pyrimidin-2-yl]-N-methyl-spiro[1,2-dihydro-indole-3,1′-cyclopropane]-6-carboxylic acid amide]
IC50: 0.1 to 1 µM

Continued, values first:

IC50: < 0.1 µM
Compound: O=C(c1ccc2c(c1)N(c1ncc(-c3cccc(F)n3)cn1)CC21CC1)N1CCOCC1 [Compound 151, [1-[5-(6-Fluoro-pyridin-2-yl)-pyrimidin-2-yl]-spiro[1,2-dihydro-indole-3,1′-cyclopropane]-6-yl]-morpholin-4-yl-methanone]

IC50: < 0.1 µM
Compound: CN[C@@H]1CCN(C(=O)c2ccc3c(c2)N(c2ncc(-c4ccccc4F)cn2)CC32CC2)C1 [Compound 121, [1-[5-(2-Fluorophenyl)-pyrimidin-2-yl]-spiro[1,2-dihydro-indole-3,1′-cyclopropane]-6-yl]-[(3R)-3-methylamino-pyrrolidin-1-yl]-methanone]

IC50: < 0.1 µM
Compound: CN(C)C(=O)c1ccc2c(c1)N(c1ncc(-c3cccc(F)c3)cn1)CC21CC1 [Compound 125, 1-[5-(3-Fluorophenyl)-pyrimidin-2-yl]-N,N-dimethyl-spiro[1,2-dihydro-indole-3,1′-cyclopropane]-6-carboxylic acid amide]

IC50: < 0.1 µM
Compound: CN1CCN(C(=O)c2ccc3c(c2)N(c2ncc(-c4ccccc4F)cn2)CC32CC2)CC1=O [Compound 38, 4-[1-[5-(2-Fluorophenyl)-pyrimidin-2-yl]spiro[1,2-dihydro-indole-3,1′-cyclopropane]-6-carbonyl]-1-methyl-piperazin-2-one]

IC50: < 0.1 µM
Compound: CC(C)(O)c1ccc(-c2cnc(N3CC4(CC4)c4ccc(C(=O)N5CCOCC5)cc43)nc2)s1 [Compound 207, [1-[5-[5-(1-Hydroxy-1-methyl-ethyl)-thiophen-2-yl]-pyrimidin-2-yl]-spiro[1,2-dihydro-indole-3,1′-cyclopropane]-6-yl]-morpholin4--yl-methanone]
